In PubChem BioAssay AID179 (DTP/NCI, 2004):
Active and inactive are the calls of the source.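 How the source made its calls: active means compounds giving half or more protection of infected cells from virus-caused growth loss, again on retest; inactive means the rest.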

Test system: CEM cells HIV-1 protection, formazan growth assay
Experiment: NCI AIDS Antiviral Assay
Settings: for IC50: measured here: growth of uninfected CEM cells
Procedure, shortened: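 Protection of CEM cells against HIV-1 was scored from cell growth (soluble formazan) across five concentrations, with parallel uninfected cells. Lack of protection may reflect toxicity.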

For `CC1(C)OP23(NC(=O)OC2(C(F)(F)F)c2ccccc2O3)OC1(C)C` (configuration not stated), the EC50 was greater than 245 µM and the IC50 was greater than 245 µM.

Work on `CC(=NNC(=S)Nc1cccc(C)c1)c1cccc(C(C)=NNC(=S)Nc2cccc(C)c2)n1` yielded an EC50 greater than 200 µM and an IC50 of 27.5 µM.

Work on `NC(Cc1ccc(O)cn1)C(=O)NC(C(=O)O)c1ccccc1` (configuration not stated) yielded an EC50 greater than 200 µM and an IC50 greater than 200 µM.

`NS(=O)(=O)c1ccc(Nc2c3ccccc3nc3c(C(=O)NCCO)cccc23)cc1` gave an EC50 greater than 200 µM and an IC50 of 5.25 µM.

With `CCOC(=O)NC(Nc1ccc(F)cc1F)(C(F)(F)F)C(F)(F)F` the EC50 was greater than 200 µM and the IC50 was greater than 200 µM.

Molecule `O=C1CCC2(O1)c1ccc(O)cc1Oc1cc(O)ccc12` has an EC50 greater than 200 µM and an IC50 greater than 200 µM.

`N#CC1(c2ccccc2)CCN(Cc2ccccc2)CC1` showed an EC50 greater than 115 µM and an IC50 of 60.3 µM.

Work on `COC(=O)[C@@H]1[C@H]2CC[C@]3(C)[C@@H](OC(C)=O)CC[C@H]3[C@@H]2CC[C@H]1C(C)=O` yielded an EC50 greater than 174 µM and an IC50 greater than 174 µM.

Work on `COc1cccc(C=O)c1[O-].COc1cccc(C=O)c1[O-].[Cu+2]` yielded an EC50 greater than 97.7 µM and an IC50 of 9.33 µM.

Molecule `O=C(CCC(=O)CC(O)(C(F)(F)F)C(F)(F)F)CC(O)(C(F)(F)F)C(F)(F)F` has an EC50 greater than 200 µM and an IC50 of 47.9 µM.

`COc1ccc2c(c1)-c1oc3ccccc3c(=O)c1CO2` gave an EC50 greater than 200 µM and an IC50 of 32.4 µM.

For `COc1cc(C2c3cc4c(cc3[C@H](NC(=O)c3cccs3)C3COC(=O)[C@H]23)OCO4)cc(OC)c1OC` (some centres not stated), the outcome was “inactive”.

For `CCN(CC)CC(O)CN(CC(=O)Nc1c(C)cccc1C)CC(C)C` (configuration not stated), the EC50 was greater than 200 µM and the IC50 was greater than 200 µM.

Work on `CCCCc1ccc(Nc2nc(Cl)c3c(ncn3COCCOC(C)=O)n2)cc1` yielded an EC50 greater than 200 µM and an IC50 of 33.1 µM.

`COc1cc2cccc(N=Cc3ccccc3Cl)c2cc1OC` gave an EC50 greater than 30.9 µM and an IC50 greater than 30.9 µM.

Work on `Cn1cnnc1Sc1c([N+](=O)[O-])ncn1C` yielded an EC50 greater than 1050 µM and an IC50 of 9.12 µM.

In the case of `O=C(O)c1ccccc1-n1nc(C(=O)O)c(N=Nc2ccc(/C=C/c3ccc(N=Nc4c(C(=O)O)nn(-c5ccccc5C(=O)O)c4O)cc3S(=O)(=O)O)c(S(=O)(=O)O)c2)c1O.[Cu+2].[Na+]`, the EC50 is reported as greater than 0.479 µM and the IC50 is reported as greater than 0.479 µM.

`O=Nc1sc(=S)n(N2CCCCC2)c1O` showed an EC50 greater than 200 µM and an IC50 of 105 µM.

For `N#Cc1cccc(CSc2ncnc3nc[nH]c23)c1`, the EC50 was greater than 200 µM and the IC50 was 81.3 µM.

`CC(C)CC(NC(=O)C(CCI)Cc1ccccc1)C(=O)Nc1ccccc1` (configuration not stated) was tested, and the EC50 was greater than 200 µM and the IC50 was 32.4 µM.

With `O=C(CC1OC(O)C(Cl)=C1Cl)c1cccnc1` (configuration not stated) the EC50 was 24.5 µM and the IC50 was 501 µM.

Molecule `COc1cccc(C2C(C(=O)Nc3cc(=O)n(C)c(=O)n3C)=C(C)NC(C)=C2C(=O)Nc2cc(=O)n(C)c(=O)n2C)c1O` has an EC50 greater than 219 µM and an IC50 of 74.1 µM.

`C[C@]12CCC[C@H](Cl)C1(O)C[C@H](C(=O)O)CC2` (some centres not stated) was tested, and the outcome was “inactive”.

In the case of `C=C=C(C)C(c1ccccc1)N(C)C` (configuration not stated), the EC50 is reported as greater than 1050 µM and the IC50 is reported as greater than 1050 µM.

`COc1nc2ncc([C@@H](OC(C)=O)[C@@H](COC(C)=O)OC(C)=O)nc2c(=O)n1C` was tested, and the EC50 was greater than 200 µM and the IC50 was greater than 200 µM.

`CC1=N/C(=C\c2ccccc2Br)C(=O)O1` was tested, and the EC50 was greater than 97.7 µM and the IC50 was greater than 97.7 µM.

In the case of `N#CCCN(CCC#N)c1ccc(C(Sc2ccccc2)C(NC(=O)c2cc([N+](=O)[O-])ccc2Cl)C(=O)Sc2ccccc2)cc1` (configuration not stated), the EC50 is reported as greater than 10.7 µM and the IC50 is reported as 3.55 µM.

`C=C(C)C(=O)NC(N)=NC#N` was tested, and the EC50 was greater than 1620 µM and the IC50 was 28.8 µM.

`CCc1cccc(CC)c1N=C(NC(=O)c1ccc(Br)cc1)SC` showed an EC50 greater than 200 µM and an IC50 greater than 200 µM.

In the case of `O=C(c1ccccc1)c1cc(Cl)ccc1NCn1nnc2ccccc21`, the EC50 is reported as greater than 200 µM and the IC50 is reported as 35.5 µM.

`c1ccc(N=C(N2CCCCC2)N(CCN2CCCCC2)c2ccccc2)cc1` was tested, and the EC50 was greater than 200 µM and the IC50 was 1.82 µM.

In the case of `COC(=O)C(CC(=O)Nc1ccc(Cl)c(Cl)c1)C(=O)C(=O)NC1C2CC3CC(C2)CC1C3` (configuration not stated), the EC50 is reported as greater than 70.8 µM and the IC50 is reported as greater than 70.8 µM.

Molecule `O=C(O)c1ccc(CSc2ccc(Cl)cc2)cc1` has an EC50 greater than 35.5 µM and an IC50 greater than 35.5 µM.

Molecule `IC[P+]1(c2ccccc2)CCCC1` has an EC50 greater than 575 µM and an IC50 of 55 µM.

With `N#C/C(=C/NC(=S)c1ccncc1)C(N)=O` the EC50 was greater than 200 µM and the IC50 was greater than 200 µM.

For `CC(C)(C)c1ccc(OC(=O)Nc2ccc(O)c(C(=O)O)c2)cc1`, the EC50 was greater than 200 µM and the IC50 was greater than 200 µM.

For `C=CCCCCCCCCCC(C(=O)O)C(=O)O`, the EC50 was greater than 977 µM and the IC50 was 550 µM.

`NCCNCCN1C(=O)c2cccc3cccc(c23)C1=O` showed an EC50 greater than 200 µM and an IC50 of 7.59 µM.

`Cc1ccsc1C(=S)Nc1ccc(Cl)c(/C=N/OC(C)C)c1` was tested, and the EC50 was 0.0575 µM and the IC50 was 10.7 µM.

With `CCN(CC)c1cc2oc(=O)cc(C)c2cc1NC(=O)c1ccccc1` the EC50 was greater than 45.7 µM and the IC50 was 2.51 µM.

Work on `O=c1c2[nH]cnc2n(-c2ccccc2)c(=S)n1-c1ccccc1` yielded an EC50 greater than 200 µM and an IC50 greater than 200 µM.

In the case of `Cc1cc(S(=O)(=O)Nc2n[nH]c(Nc3ccccc3)n2)c(SSc2cc(Cl)c(C)cc2S(=O)(=O)Nc2n[nH]c(Nc3ccccc3)n2)cc1Cl`, the EC50 is reported as 83.2 µM and the IC50 is reported as 95.5 µM.
